We go through 26 compounds from PubChem BioAssay AID330 (DTP/NCI, 2004).

“And” between values parts separate entries of the source, which are not always exact repeats. Equal entries are not always repeated. Toxic doses and inconclusive results are not listed.

For this experiment, the system named is P388 leukemia ip, CD2F1 mice, survival T/C. The experiment in a line: NCI In Vivo Anticancer Drug Screen. Data for tumor model P388 Leukemia (intraperitoneal) in CD2F1 (CDF1) mice. As to conditions: endpoint: median survival time, higher = longer survival. In short, it runs like this: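 Mice carrying the transplanted tumor received test compound or vehicle. Survival was recorded in each group, and the value is the treated-group measurement divided by that of the vehicle-treated control group.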

Setting [1] is: dose: 7.5 mg/kg/injection, schedule: Q01DX005 (ip), vehicle: saline with Tween-80.
[2] abbreviates: dose: 60.0 mg/kg/injection, schedule: Q01DX005 (ip), vehicle: saline with Tween-80.
Where [3] appears, read: dose: 50.0 mg/kg/injection, schedule: Q01DX005 (ip), vehicle: Klucel (hydroxypropylcellulose) (HPC).
Where [4] appears, read: dose: 100.0 mg/kg/injection, schedule: Q01DX005 (ip), vehicle: Klucel (hydroxypropylcellulose) (HPC).
The mark [5] stands for this setting: dose: 200.0 mg/kg/injection, schedule: Q01DX005 (ip), vehicle: Klucel (hydroxypropylcellulose) (HPC).
[6] abbreviates: dose: 50.0 mg/kg/injection, schedule: Q01DX009 (ip), vehicle: saline.
Where [7] appears, read: dose: 100.0 mg/kg/injection, schedule: Q01DX009 (ip), vehicle: saline.
Where [8] appears, read: dose: 200.0 mg/kg/injection, schedule: Q01DX009 (ip), vehicle: saline.
Setting [9] is: dose: 50.0 mg/kg/injection, schedule: Q01DX009 (ip), vehicle: Klucel (hydroxypropylcellulose) (HPC).
Where [10] appears, read: dose: 100.0 mg/kg/injection, schedule: Q01DX009 (ip), vehicle: Klucel (hydroxypropylcellulose) (HPC).
The mark [11] stands for this setting: dose: 200.0 mg/kg/injection, schedule: Q01DX009 (ip), vehicle: Klucel (hydroxypropylcellulose) (HPC).

`C/C(=N\NC(=S)N1CCN(c2cnccn2)CC1)c1ccccn1`: the T/C is, setting by setting: (dose: 3.75 mg/kg/injection, schedule: Q01DX005 (ip), vehicle: saline with Tween-80) 120 % of control; under setting [1], 120 % of control and 122 % of control.
For the compound `COc1ccc(N=c2nc3n4c(c(Br)cc(Br)c4n2)NC(C(Br)(Br)Br)=N3)cc1`, the T/C by setting is: under setting [2], 90 % of control; (dose: 120.0 mg/kg/injection, schedule: Q01DX005 (ip), vehicle: saline with Tween-80) 92 % of control; (dose: 240.0 mg/kg/injection, schedule: Q01DX005 (ip), vehicle: saline with Tween-80) 100 % of control.
In the case of `CCCn1c(CC)nc2c(cnn2C)c1=O`, the T/C is 101 % of control under setting [3], 101 % of control under setting [4] and 101 % of control under setting [5].
In the case of `O=C1NC(=O)C(CCCCCl)N1` (configuration not stated), the T/C reads like this: under setting [3], 100 % of control; under setting [4], 102 % of control; under setting [5], 98 % of control.
In the case of `CC(=O)Nc1nc(C)c(S(=O)(=O)Cl)s1`, the T/C is, setting by setting: under setting [6], 102 % of control; under setting [7], 98 % of control; under setting [8], 102 % of control; (dose: 400.0 mg/kg/injection, schedule: Q01DX009 (ip), vehicle: saline) 94 % of control.
For `COc1cc2oc3c(c(=O)c2c(O)c1/C=C/C(C)C)C(C=C(C)C)Oc1cc(O)ccc1-3` (configuration not stated), the T/C runs as follows: under setting [9], 124 % of control; under setting [10], 115 % of control; under setting [11], 114 % of control.
Turning to `CN1CC(O)C2=CC(=O)C(=O)C(I)=C21` (configuration not stated), the T/C is, setting by setting: (dose: 30.0 mg/kg/injection, schedule: Q01DX005 (ip), vehicle: saline + Tween-80 + alcohol) 108 % of control; under setting [3], 109 % of control; (dose: 60.0 mg/kg/injection, schedule: Q01DX005 (ip), vehicle: saline + Tween-80 + alcohol) 101 % of control; (dose: 240.0 mg/kg/injection, schedule: Q01DX005 (ip), vehicle: saline + Tween-80 + alcohol) 114 % of control.
As to `Nc1n[n+](-c2ccc(Cl)cc2)no1`, the T/C is, setting by setting: (dose: 3.13 mg/kg/injection, schedule: Q01DX009 (ip), vehicle: water) 108 % of control; (dose: 6.25 mg/kg/injection, schedule: Q01DX009 (ip), vehicle: water) 102 % of control and 124 % of control; (dose: 12.5 mg/kg/injection, schedule: Q01DX009 (ip), vehicle: water) 124 % of control; (dose: 25.0 mg/kg/injection, schedule: Q01DX009 (ip), vehicle: water) 155 % of control.
`CN1CCCOC(c2ccccc2)c2ccsc2CC1` (configuration not stated): the T/C under setting [1] is 101 % of control; the T/C (dose: 15.0 mg/kg/injection, schedule: Q01DX005 (ip), vehicle: saline with Tween-80) was 102 % of control; the T/C (dose: 30.0 mg/kg/injection, schedule: Q01DX005 (ip), vehicle: saline with Tween-80) is 102 % of control; the T/C under setting [2] was 101 % of control and 93 % of control.
As for `COC(OC)/C(C)=N/NC1=Nc2ccc(Cl)cc2C(c2ccccc2Cl)=NC1`, the T/C is, setting by setting: (dose: 50.0 mg/kg/injection, schedule: Q01DX009 (ip), vehicle: saline with Tween-80) 98 % of control; (dose: 100.0 mg/kg/injection, schedule: Q01DX009 (ip), vehicle: saline with Tween-80) 95 % of control; (dose: 200.0 mg/kg/injection, schedule: Q01DX009 (ip), vehicle: saline with Tween-80) 101 % of control.
In the case of `Cc1ccc(SC(=O)N2CCN(C(=O)Sc3ccc(C)cc3)CC2)cc1`, the T/C is, setting by setting: under setting [9], 93 % of control; under setting [10], 89 % of control.
Take `O=C(O)CC1(C(=O)O)CCC(O)CC1` (configuration not stated): the T/C reads like this: under setting [6], 100 % of control; under setting [7], 107 % of control; under setting [8], 100 % of control.
Take `[CH3][Sn]([CH3])([n]1cnc2ccccc21)[n]1cnc2ccccc21`: the T/C by setting is: (dose: 3.12 mg/kg/injection, schedule: Q01DX005 (ip), vehicle: Klucel (hydroxypropylcellulose) (HPC)) 111 % of control; (dose: 6.25 mg/kg/injection, schedule: Q01DX005 (ip), vehicle: Klucel (hydroxypropylcellulose) (HPC)) 115 % of control; (dose: 12.5 mg/kg/injection, schedule: Q01DX005 (ip), vehicle: Klucel (hydroxypropylcellulose) (HPC)) 118 % of control.
Consider `Cc1cc(-c2cc(C)on2)no1`, for which the T/C is 103 % of control (dose: 60.0 mg/kg/injection, schedule: Q01DX005 (ip), vehicle: saline); 103 % of control (dose: 120.0 mg/kg/injection, schedule: Q01DX005 (ip), vehicle: saline); 103 % of control (dose: 240.0 mg/kg/injection, schedule: Q01DX005 (ip), vehicle: saline).
Take `COc1ccc2nc3cc(Cl)ccc3c(NCCCCNc3c4ccc(Cl)cc4nc4ccc(OC)nc34)c2n1`: the T/C was 102 % of control (dose: 100.0 mg/kg/injection, schedule: Q04DX003 (ip), vehicle: saline with Tween-80) and 118 % of control (dose: 200.0 mg/kg/injection, schedule: Q04DX003 (ip), vehicle: saline with Tween-80).
`CC(C)(C)c1cc(CCCCCCCC2(CCCCCCCc3cc(C(C)(C)C)cc(C(C)(C)C)c3)OC(COCCOCCOCCCC#N)C(COCCOCCOCCCC#N)O2)cc(C(C)(C)C)c1` (configuration not stated): the T/C by setting is: (dose: 25.0 mg/kg/injection, schedule: Q01DX005 (ip), vehicle: saline with Tween-80) 97 % of control; (dose: 50.0 mg/kg/injection, schedule: Q01DX005 (ip), vehicle: saline with Tween-80) 95 % of control; (dose: 100.0 mg/kg/injection, schedule: Q01DX005 (ip), vehicle: saline with Tween-80) 113 % of control; (dose: 200.0 mg/kg/injection, schedule: Q01DX005 (ip), vehicle: saline with Tween-80) 100 % of control.
Regarding `Nc1nc(N)nc(CCc2nc(N)nc(N)n2)n1`, the T/C under setting [6] was 103 % of control, the T/C under setting [7] was 88 % of control and the T/C under setting [8] is 98 % of control.
On to `N#CC1C(=O)NC(=S)NC1CCc1ccccc1` (configuration not stated), for which the T/C under setting [9] was 105 % of control, the T/C under setting [10] is 99 % of control and the T/C under setting [11] was 100 % of control.
`CC1(c2ccc(Cl)cc2)OC(=O)CC(=O)O1`: the T/C under setting [3] is 99 % of control, the T/C under setting [4] was 100 % of control and the T/C under setting [5] is 100 % of control.
Take `COc1ccc(-c2csc(N)n2)cc1OC`: the T/C runs as follows: (dose: 100.0 mg/kg/injection, schedule: Q04DX003 (ip), vehicle: Klucel (hydroxypropylcellulose) (HPC)) 98 % of control; (dose: 200.0 mg/kg/injection, schedule: Q04DX003 (ip), vehicle: Klucel (hydroxypropylcellulose) (HPC)) 101 % of control; (dose: 400.0 mg/kg/injection, schedule: Q04DX003 (ip), vehicle: Klucel (hydroxypropylcellulose) (HPC)) 102 % of control.
Consider `O=c1n(-c2ccccc2)c(=O)n2n1C1C3C4C5C1C5C2C43` (configuration not stated), for which the T/C by setting is: (dose: 6.25 mg/kg/injection, schedule: Q01DX009 (ip), vehicle: Klucel (hydroxypropylcellulose) (HPC)) 100 % of control; (dose: 12.5 mg/kg/injection, schedule: Q01DX009 (ip), vehicle: Klucel (hydroxypropylcellulose) (HPC)) 87 % of control.
On to `C=CC(=NC(C)(C)C)Nc1ccccc1C#N`, for which the T/C is 106 % of control (dose: 3.12 mg/kg/injection, schedule: Q01DX009 (ip), vehicle: saline with Tween-80); 106 % of control (dose: 6.25 mg/kg/injection, schedule: Q01DX009 (ip), vehicle: saline with Tween-80); 100 % of control and 117 % of control (dose: 12.5 mg/kg/injection, schedule: Q01DX009 (ip), vehicle: saline with Tween-80).
For the compound `CCC1=CC(C(O)CC(C)C)C(C)(Cc2ccc(CC)cn2)NC1c1ccccc1` (configuration not stated), for the setting “dose: 100.0 mg/kg/injection, schedule: Q04DX002 (ip), vehicle: saline with Tween-80”, the T/C was 96 % of control.
For the compound `CCOC1(OCC)Oc2c(Cl)c(Cl)c(Cl)c(Cl)c2OC1(OCC)OCC`, the T/C is, setting by setting: (dose: 60.0 mg/kg/injection, schedule: Q01DX005 (ip), vehicle: Klucel (hydroxypropylcellulose) (HPC)) 99 % of control; (dose: 120.0 mg/kg/injection, schedule: Q01DX005 (ip), vehicle: Klucel (hydroxypropylcellulose) (HPC)) 100 % of control; (dose: 240.0 mg/kg/injection, schedule: Q01DX005 (ip), vehicle: Klucel (hydroxypropylcellulose) (HPC)) 104 % of control.
For `CN(C)CC(CN(C)C)C(=O)/C=C/c1ccc(O)cc1`, the T/C was 105 % of control (dose: 1.56 mg/kg/injection, schedule: Q01DX005 (ip), vehicle: saline); 114 % of control (dose: 3.12 mg/kg/injection, schedule: Q01DX005 (ip), vehicle: saline); 114 % of control (dose: 6.25 mg/kg/injection, schedule: Q01DX005 (ip), vehicle: saline).
For `COc1cc2c(NCCCCCCO[N+](=O)[O-])ncnc2c(OC)c1OC`, the T/C runs as follows: under setting [3], 100 % of control; under setting [4], 103 % of control; under setting [5], 100 % of control.
